Six molecules from ChEMBL document CHEMBL1141062, “Synthesis and evaluation of tricyclic pyrrolopyrimidinones as dipeptide mimetics: inhibition of interleukin-1beta-converting enzyme” (Bioorg Med Chem Lett, 2005) can be followed below.

Each structure is given as a SMILES string.

As usually defined, the IC50 is the midpoint of a concentration-inhibition curve.

One assay relates to THP-1. As to the kind of experiment: Inhibitory concentration against IL-1b production in THP-1 cells. Format: functional, cell-based. The note with it: Homo sapiens.
Another assay has as its target Caspase-8 (Homo sapiens, UniProt Q14790). As to the kind of experiment: Inhibitory activity towards CASP8 using fluorogenic substrates following an incubation for over 30 min at 37 degree C.
Another assay addresses T1, Caspase-1 (Homo sapiens, UniProt P29466).
T1 sequence (P29466 whole entry): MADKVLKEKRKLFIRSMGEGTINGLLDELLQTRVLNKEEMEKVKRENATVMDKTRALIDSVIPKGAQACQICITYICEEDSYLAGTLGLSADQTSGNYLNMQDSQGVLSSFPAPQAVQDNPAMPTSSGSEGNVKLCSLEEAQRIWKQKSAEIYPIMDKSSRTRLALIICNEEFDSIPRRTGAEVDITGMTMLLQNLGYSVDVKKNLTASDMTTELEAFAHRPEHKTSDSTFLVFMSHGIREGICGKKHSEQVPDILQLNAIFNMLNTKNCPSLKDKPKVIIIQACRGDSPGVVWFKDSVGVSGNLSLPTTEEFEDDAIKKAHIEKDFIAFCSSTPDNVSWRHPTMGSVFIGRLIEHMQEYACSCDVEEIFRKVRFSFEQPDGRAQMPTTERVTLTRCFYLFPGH
Kind of assay: Inhibitory activity towards CASP1 using fluorogenic substrates following an incubation for over 30 min at 37 degree C.

For the next assay, the target named is T2, Caspase-3 (Homo sapiens, UniProt P42574).
T2 sequence (P42574 whole entry): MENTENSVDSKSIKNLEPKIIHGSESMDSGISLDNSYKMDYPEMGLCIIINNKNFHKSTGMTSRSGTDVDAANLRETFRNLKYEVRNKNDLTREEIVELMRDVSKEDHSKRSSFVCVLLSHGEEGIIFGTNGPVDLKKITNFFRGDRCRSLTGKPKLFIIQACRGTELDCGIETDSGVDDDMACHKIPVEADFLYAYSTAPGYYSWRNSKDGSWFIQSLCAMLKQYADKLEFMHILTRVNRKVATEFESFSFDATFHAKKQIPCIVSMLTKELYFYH
As to the kind of experiment: Inhibitory activity towards CASP3 using fluorogenic substrates following an incubation for over 30 min at 37 degree C.

Sequence of Caspase-8 (Q14790 217-374 limits assumed): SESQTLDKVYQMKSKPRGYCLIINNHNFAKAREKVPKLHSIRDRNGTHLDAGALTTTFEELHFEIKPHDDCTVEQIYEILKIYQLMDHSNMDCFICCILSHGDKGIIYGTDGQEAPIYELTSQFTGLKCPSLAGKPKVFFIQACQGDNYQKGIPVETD
Sequence of Caspase-8 (Q14790 385-479 limits assumed): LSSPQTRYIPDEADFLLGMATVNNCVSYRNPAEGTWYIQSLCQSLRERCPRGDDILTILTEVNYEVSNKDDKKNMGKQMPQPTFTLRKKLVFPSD

Turning to `O=C1C[C@H](NC(=O)[C@@H]2CCc3nc4ccccc4c(=O)n32)C(O)O1` (some centres undefined), the IC50 was 10 µM with THP-1, 10 µM on Caspase-8, 4.58 µM at Caspase-1 and 10 µM against Caspase-3.

Take `O=C1C[C@H](NC(=O)[C@@H]2CCc3nc4cc(-c5ccccc5)nc-4c(O)n32)C(O)O1` (some centres undefined): the IC50 in the assay on THP-1 amounted to 1.06 µM; on Caspase-8 it was 3.05 µM; against Caspase-1 it was 0.264 µM; on Caspase-3, 10 µM.

With `O=C1C[C@H](NC(=O)[C@@H]2CCc3nc4cc(-c5ccc(Cl)cc5)nc-4c(O)n32)C(O)O1` (some centres undefined), the IC50 in the assay on THP-1 came to 0.83 µM; against Caspase-8, 4.81 µM; at Caspase-1, 0.097 µM; against Caspase-3 it was 10 µM.

Regarding `CC(C)(C)c1cc2nc3n(c(O)c-2n1)[C@H](C(=O)N[C@H]1CC(=O)OC1O)CC3` (some centres undefined), the IC50 was determined as 0.975 µM in the assay on THP-1, 7.54 µM on Caspase-8, 0.421 µM at Caspase-1 and 2.29 µM against Caspase-3.

Consider `O=C1C[C@H](NC(=O)[C@@H]2CCc3nc4cc(-c5ccccc5Cl)nc-4c(O)n32)C(O)O1` (some centres undefined), for which the IC50 in the assay with THP-1 was 0.252 µM; on Caspase-8, 0.336 µM; at Caspase-1, 0.014 µM; on Caspase-3 it was 1.84 µM.

Turning to `O=C1C[C@H](NC(=O)[C@@H]2CCc3nc4cc(-c5cccc(Cl)c5)nc-4c(O)n32)C(O)O1` (some centres undefined), the IC50 with THP-1 was 0.529 µM; against Caspase-8 it was 1.82 µM; at Caspase-1, 0.055 µM; against Caspase-3, 4.39 µM.
